What was measured:
[1] = system: ALK tyrosine kinase receptor (Homo sapiens), Q9UM73 [C1156Y]; experiment: (§1) Selectivity interaction (KinomeScan (DiscoverX)) EUB0001049a ALK; conditions: at 1 µM
[2] = system: ALK tyrosine kinase receptor (Homo sapiens), Q9UM73 [L1196M]; experiment: as §1; conditions: at 1 µM
[3] = molecular target: ALK tyrosine kinase receptor (Homo sapiens, UniProt Q9UM73); experiment: as §1; conditions: at 1 µM
[4] = molecular target: MAP/microtubule affinity-regulating kinase 3 (Homo sapiens) (UniProt P27448); experiment: Selectivity interaction (Kinase panel (DSF assay)) EUB0001558a MARK3
[5] = molecular target: Dual specificity mitogen-activated protein kinase kinase 1 (Homo sapiens, UniProt Q02750); experiment: Selectivity interaction (Kinase panel (Invitrogen)) EUB0000639a MAP2K1; conditions: at 200 nM
[6] = molecular target: T1, SNF-related serine/threonine-protein kinase (Homo sapiens) (UniProt Q9NRH2); experiment: Selectivity interaction (ActivX KiNativ screen (kinase selectivity in THP-1 cell lysates)) EUB0000639a SNRK; type: subcellular; conditions: lysate, at 0.04 µM
T1 sequence (whole entry): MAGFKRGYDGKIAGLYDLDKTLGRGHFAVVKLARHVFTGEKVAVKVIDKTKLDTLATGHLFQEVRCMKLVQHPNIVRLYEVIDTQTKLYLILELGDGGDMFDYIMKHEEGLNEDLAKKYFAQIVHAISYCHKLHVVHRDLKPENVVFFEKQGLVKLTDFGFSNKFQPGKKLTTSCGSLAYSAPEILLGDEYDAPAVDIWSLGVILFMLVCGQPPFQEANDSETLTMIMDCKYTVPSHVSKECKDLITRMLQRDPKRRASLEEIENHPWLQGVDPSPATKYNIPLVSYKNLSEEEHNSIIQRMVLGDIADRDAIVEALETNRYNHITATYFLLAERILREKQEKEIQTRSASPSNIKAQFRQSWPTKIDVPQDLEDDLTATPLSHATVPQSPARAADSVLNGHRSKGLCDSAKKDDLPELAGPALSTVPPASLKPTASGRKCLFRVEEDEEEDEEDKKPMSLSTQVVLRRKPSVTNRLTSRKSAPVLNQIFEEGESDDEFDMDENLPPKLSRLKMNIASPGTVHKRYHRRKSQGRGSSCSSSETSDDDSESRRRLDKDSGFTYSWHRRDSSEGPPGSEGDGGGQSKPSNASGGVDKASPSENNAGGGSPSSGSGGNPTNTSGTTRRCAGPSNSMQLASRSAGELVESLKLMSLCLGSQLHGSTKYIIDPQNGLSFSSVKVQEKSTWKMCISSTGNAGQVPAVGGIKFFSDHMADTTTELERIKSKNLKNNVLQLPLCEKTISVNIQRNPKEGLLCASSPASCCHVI

[7] = molecular target: RAC-gamma serine/threonine-protein kinase (Homo sapiens, UniProt Q9Y243); experiment: Selectivity interaction (KinomeScan (DiscoverX)) EUB0000092b AKT3; conditions: at 10 µM
[8] = molecular target: Cyclin-dependent kinase 11B (Homo sapiens) (UniProt P21127); experiment: Selectivity interaction (Ambit KINOMEscan and KiNATiv profiling in Jurkat cells) EUB0000090b CDK11B; type: cell-based; conditions: at 1 µM
[9] = molecular target: Receptor tyrosine-protein kinase erbB-4 (Homo sapiens, UniProt Q15303); experiment: Selectivity interaction (KinomeScan (DiscoverX)) EUB0000045b ERBB4
[10] = molecular target: 5'-AMP-activated protein kinase catalytic subunit alpha-1 (Homo sapiens, UniProt Q13131); experiment: Selectivity interaction (KinomeScan (DiscoverX)) EUB0000045b PRKAA1
[11] = molecular target: Serine/threonine-protein kinase 32A (Homo sapiens) (UniProt Q8WU08); experiment: Selectivity interaction (KinomeScan (DiscoverX)) EUB0000045b STK32A
[12] = molecular target: T2, Serine/threonine-protein kinase ULK1 (Homo sapiens) (UniProt O75385); experiment: Selectivity interaction (KinomeScan (DiscoverX)) EUB0000607a ULK1; conditions: at 10 µM
T2 sequence (whole entry): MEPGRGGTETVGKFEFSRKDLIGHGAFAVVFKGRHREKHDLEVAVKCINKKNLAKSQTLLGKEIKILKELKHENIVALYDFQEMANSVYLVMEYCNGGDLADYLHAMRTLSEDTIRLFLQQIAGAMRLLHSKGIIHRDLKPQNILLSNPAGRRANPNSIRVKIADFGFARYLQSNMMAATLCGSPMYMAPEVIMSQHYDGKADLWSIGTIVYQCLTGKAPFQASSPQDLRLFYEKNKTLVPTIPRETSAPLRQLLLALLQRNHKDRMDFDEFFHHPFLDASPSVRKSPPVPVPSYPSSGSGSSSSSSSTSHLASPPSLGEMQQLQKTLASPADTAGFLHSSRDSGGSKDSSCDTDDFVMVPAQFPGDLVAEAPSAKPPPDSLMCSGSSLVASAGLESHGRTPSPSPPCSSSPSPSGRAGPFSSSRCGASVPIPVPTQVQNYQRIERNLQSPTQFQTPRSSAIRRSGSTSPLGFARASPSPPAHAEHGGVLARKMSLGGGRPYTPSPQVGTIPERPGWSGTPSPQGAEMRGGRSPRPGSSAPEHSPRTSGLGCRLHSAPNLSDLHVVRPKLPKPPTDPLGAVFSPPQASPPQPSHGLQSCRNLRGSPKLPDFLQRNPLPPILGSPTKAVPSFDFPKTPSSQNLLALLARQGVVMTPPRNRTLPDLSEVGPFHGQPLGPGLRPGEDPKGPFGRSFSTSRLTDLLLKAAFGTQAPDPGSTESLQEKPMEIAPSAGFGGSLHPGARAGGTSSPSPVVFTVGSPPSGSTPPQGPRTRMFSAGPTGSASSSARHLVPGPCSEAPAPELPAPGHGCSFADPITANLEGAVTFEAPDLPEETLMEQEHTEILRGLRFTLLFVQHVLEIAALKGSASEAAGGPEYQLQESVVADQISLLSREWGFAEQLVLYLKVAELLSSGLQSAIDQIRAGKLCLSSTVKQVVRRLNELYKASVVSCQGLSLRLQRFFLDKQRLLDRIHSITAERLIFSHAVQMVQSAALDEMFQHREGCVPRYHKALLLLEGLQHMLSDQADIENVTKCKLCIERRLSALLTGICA

Chain of 5'-AMP-activated protein kinase catalytic subunit alpha-1 (Q13131 whole entry, looked up): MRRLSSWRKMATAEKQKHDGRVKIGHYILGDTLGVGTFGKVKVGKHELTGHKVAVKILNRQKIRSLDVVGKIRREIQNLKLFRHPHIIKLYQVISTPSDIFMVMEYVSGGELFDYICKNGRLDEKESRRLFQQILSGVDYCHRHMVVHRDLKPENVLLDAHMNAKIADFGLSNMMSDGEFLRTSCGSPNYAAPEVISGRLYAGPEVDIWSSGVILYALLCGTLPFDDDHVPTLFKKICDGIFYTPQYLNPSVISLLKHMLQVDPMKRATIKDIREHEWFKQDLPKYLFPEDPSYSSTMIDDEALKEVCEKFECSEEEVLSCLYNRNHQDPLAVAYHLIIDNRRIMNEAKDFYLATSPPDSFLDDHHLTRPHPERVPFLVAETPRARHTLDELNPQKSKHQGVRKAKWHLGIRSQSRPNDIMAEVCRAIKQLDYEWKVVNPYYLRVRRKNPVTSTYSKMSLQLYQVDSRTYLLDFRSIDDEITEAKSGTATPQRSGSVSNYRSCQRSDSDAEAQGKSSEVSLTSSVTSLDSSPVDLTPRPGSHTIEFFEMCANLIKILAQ
Chain of Receptor tyrosine-protein kinase erbB-4 (Q15303 whole entry): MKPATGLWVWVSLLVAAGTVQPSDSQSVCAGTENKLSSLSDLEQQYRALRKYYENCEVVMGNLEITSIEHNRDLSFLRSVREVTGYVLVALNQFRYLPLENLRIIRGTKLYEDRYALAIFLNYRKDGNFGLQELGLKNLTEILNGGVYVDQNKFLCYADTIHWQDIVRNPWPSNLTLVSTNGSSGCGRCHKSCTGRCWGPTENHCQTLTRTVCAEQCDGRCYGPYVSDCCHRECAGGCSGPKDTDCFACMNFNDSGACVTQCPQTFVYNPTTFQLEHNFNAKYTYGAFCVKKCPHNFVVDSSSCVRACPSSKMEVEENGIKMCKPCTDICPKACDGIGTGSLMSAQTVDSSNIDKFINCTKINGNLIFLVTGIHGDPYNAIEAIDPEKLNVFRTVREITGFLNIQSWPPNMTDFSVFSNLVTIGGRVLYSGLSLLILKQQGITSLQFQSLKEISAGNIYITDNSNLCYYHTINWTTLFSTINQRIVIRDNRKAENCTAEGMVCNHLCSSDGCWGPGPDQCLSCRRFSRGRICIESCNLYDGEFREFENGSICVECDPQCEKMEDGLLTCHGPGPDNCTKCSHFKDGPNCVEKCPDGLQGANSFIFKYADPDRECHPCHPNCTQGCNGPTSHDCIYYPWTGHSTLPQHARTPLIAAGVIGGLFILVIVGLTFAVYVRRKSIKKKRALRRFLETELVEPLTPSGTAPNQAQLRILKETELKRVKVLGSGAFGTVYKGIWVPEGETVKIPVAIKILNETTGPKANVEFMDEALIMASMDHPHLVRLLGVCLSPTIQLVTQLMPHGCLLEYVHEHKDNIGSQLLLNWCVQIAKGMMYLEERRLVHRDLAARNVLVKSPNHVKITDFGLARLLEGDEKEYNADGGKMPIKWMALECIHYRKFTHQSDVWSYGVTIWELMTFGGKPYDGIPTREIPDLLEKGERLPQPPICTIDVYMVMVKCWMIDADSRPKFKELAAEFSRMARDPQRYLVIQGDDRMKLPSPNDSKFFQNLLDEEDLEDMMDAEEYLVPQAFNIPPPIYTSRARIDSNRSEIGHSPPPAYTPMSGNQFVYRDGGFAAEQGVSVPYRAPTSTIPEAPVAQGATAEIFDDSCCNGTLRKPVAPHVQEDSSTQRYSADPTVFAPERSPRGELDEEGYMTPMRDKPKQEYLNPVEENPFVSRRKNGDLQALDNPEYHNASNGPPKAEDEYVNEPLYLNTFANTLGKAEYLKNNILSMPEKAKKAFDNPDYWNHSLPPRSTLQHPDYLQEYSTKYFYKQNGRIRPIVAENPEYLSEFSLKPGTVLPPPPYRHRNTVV
Chain of Serine/threonine-protein kinase 32A (Homo sapiens) (Q8WU08 whole entry): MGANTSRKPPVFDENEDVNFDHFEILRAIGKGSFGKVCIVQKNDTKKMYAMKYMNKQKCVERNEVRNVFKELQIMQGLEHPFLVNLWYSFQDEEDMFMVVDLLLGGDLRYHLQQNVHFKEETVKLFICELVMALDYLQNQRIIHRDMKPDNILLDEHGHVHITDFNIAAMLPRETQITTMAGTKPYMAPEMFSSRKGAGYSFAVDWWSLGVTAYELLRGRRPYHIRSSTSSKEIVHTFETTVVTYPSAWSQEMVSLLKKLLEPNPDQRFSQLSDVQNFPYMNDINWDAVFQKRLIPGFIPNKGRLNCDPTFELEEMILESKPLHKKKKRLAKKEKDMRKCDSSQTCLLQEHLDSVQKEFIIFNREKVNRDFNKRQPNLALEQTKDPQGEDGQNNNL
Chain of MAP/microtubule affinity-regulating kinase 3 (Homo sapiens) (P27448 whole entry, looked up): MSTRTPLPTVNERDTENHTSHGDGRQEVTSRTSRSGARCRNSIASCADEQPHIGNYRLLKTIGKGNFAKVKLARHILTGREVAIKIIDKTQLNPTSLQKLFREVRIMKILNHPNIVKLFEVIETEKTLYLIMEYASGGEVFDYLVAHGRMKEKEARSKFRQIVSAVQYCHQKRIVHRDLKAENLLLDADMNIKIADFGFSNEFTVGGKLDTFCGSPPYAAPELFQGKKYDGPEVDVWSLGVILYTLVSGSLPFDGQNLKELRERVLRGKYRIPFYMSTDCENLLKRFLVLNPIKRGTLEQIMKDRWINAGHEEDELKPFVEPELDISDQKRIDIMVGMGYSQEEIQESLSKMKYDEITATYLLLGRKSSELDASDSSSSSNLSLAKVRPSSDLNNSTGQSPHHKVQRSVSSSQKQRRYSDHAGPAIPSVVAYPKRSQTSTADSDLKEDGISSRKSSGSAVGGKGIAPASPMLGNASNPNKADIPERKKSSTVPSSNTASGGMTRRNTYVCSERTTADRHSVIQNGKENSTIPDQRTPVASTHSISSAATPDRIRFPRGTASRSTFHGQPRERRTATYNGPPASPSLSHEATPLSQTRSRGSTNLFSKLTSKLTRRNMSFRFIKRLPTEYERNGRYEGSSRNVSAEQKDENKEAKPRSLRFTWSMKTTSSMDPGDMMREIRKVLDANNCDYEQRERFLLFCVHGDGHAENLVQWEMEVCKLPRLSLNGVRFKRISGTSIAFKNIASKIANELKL
Chain of Cyclin-dependent kinase 11B (Homo sapiens) (P21127 whole entry): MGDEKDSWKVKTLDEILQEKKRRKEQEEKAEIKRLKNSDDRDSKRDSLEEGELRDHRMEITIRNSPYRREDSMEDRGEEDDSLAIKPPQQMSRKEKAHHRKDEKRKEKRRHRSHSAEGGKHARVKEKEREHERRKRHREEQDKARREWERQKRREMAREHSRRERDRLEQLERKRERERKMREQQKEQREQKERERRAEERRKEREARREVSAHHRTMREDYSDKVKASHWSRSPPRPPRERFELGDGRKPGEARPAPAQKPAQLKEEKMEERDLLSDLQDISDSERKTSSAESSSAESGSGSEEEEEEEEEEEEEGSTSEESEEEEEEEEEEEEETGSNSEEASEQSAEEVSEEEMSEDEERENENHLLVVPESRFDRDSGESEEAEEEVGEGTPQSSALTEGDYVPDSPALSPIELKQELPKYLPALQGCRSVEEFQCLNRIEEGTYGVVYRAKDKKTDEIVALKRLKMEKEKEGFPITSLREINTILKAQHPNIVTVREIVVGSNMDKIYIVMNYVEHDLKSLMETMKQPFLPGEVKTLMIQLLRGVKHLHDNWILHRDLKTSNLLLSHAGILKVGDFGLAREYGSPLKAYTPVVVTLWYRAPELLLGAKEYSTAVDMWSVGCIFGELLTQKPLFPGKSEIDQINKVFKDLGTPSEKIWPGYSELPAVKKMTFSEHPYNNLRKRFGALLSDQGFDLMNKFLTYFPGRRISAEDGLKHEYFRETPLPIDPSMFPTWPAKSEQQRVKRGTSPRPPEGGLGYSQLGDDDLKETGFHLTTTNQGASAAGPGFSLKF
Chain of RAC-gamma serine/threonine-protein kinase (Q9Y243 whole entry): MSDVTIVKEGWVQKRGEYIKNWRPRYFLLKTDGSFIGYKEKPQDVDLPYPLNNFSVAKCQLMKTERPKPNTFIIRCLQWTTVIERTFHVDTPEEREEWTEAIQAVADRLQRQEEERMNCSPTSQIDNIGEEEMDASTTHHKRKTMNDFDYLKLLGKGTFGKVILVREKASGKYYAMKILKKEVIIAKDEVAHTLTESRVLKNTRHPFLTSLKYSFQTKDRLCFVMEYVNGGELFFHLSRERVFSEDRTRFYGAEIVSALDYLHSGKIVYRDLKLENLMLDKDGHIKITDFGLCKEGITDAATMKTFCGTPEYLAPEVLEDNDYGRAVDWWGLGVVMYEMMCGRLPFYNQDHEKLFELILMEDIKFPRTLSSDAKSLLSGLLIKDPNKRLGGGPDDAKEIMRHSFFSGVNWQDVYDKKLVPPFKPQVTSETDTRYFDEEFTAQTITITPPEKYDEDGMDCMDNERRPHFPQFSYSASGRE
Chain of Dual specificity mitogen-activated protein kinase kinase 1 (Q02750 whole entry): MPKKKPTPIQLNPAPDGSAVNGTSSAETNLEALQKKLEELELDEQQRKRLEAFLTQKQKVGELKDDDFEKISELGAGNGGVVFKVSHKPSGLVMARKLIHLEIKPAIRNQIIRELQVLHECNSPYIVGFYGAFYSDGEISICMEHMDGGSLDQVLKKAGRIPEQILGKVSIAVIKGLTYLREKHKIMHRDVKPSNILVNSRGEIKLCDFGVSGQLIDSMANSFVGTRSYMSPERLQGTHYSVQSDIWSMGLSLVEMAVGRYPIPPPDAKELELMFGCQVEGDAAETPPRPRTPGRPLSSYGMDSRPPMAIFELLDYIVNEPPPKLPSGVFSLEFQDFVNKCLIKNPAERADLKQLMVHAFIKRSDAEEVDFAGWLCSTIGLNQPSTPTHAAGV

Q: Which % of control [1] does the source give for `COc1cc(Nc2nc(C)cc(-c3cnn4nc(OC)ccc34)n2)cc(C(F)(F)F)c1` here?
A: 89%

Q: And the % of control [2]?
A: 100%

Q: And the % of control [3]?
A: 94%

Q: Which dTM [4] does the source give for `CC(C)(O)[C@H](F)CN1Cc2cc(NC(=O)c3cnn4cccnc34)c(N3CCOCC3)cc2C1=O` here?
A: 1.9 K

Q: `CC[C@@H]1[C@H](F)C(=O)N[C@@H]1COc1nccc2cc(C(N)=O)c(OC)cc12` [ZIMLOVISERTIB] was tested. Which % of inhibition [5] did it give?
A: 20.4%

Q: What about the % of inhibition [6] of the same compound?
A: 9.5%

Q: How did the % of control [7] turn out when `CCC(=O)N1CCN(c2ccc(-n3c(=O)ccc4cnc5ccc(-c6cnc7ccccc7c6)cc5c43)cc2C(F)(F)F)CC1` was run?
A: 77%

Q: With `CN(C)C/C=C/C(=O)Nc1ccc(C(=O)N2CCCC(Nc3ncc(Cl)c(-c4c[nH]c5ccccc45)n3)C2)cc1` (stereo not given) as the compound, how does the % of control [8] read?
A: 100%

Q: With `C=CC(=O)Nc1cc(-n2c(=O)ccc3cnc4ccc(-c5ccc(NS(C)(=O)=O)cc5)cc4c32)ccc1C` as the compound, how does the % of control ([9]; at 1 µM) read?
A: 78%

Q: And the % of control ([9]; at 10 µM)?
A: 18%

Q: What about the % of control ([10]; at 1 µM) of the same compound?
A: 100%

Q: And the % of control ([10]; at 10 µM)?
A: 100%

Q: And the % of control ([11]; at 1 µM)?
A: 100%

Q: What about the % of control ([11]; at 10 µM) of the same compound?
A: 100%

Q: `CNC(=O)Nc1ccc(-c2nc(N3CC4CCC(C3)O4)c3cnn(C4CCC5(CC4)OCCO5)c3n2)cc1` was tested. Which % of control [12] did it give?
A: 100%

From ChEMBL document CHEMBL5465560, “Selectivity Literature for EUbOPEN Chemogenomic Library” (2024)
